In patent US20250179439A1, “PRODUCTION METHOD FOR ORGANOID” (KEIO UNIVERSITY, priority 2022, published 2025):
Residues, ends and D or L forms follow the SMILES beside them. *: point of attachment. Cbz = O=C(OCc1ccccc1)*

Tested on: CRC organoids
Assay: Drug screening assay (HTS) of GFP-labelled organoids in suspension culture, 384-well
Assay type: cell-based, human
Description: In the present study, a total of 23 organoid lineages were subjected to screening. Prior to screening, the organoids were labeled with a green fluorescent protein (GFP) using PB-CMV-MCS-EF1α-GFP-Puro PiggyBac (PB513B-1, available from System Biosciences, LLC.) and Super PiggyBac transposase (PB210-20, available from System Biosciences, LLC.) vectors.
The organoids were dissociated with TrypLE Express (available from Thermo Fisher Scientific, Inc.) and filtered using a cell strainer (pore size: 20 μm, available from Sysmex Corporation). Using a cell sorter (SH800, available from Sony Corporation), 800 to 1,500 cells were sorted into each well of a 384-well plate.
The organoids were treated with a test compound 24 hours or 96 hours after seeding. The organoids were grown for 6 to 8 days, and the colony area was measured based on the fluorescence of GFP using an IN Cell Analyzer 6000 confocal imaging system (available from GE Healthcare Life Sciences). In addition, bright field imaging and luminescence-based ATP measurement were carried out using Cell3iMager duos (available from SCREEN Holdings Co., Ltd.) and CellTiter-Glo cell viability assay (available from Promega Corporation).
The bright field image was analyzed using software integrated into the Cell3iMager. […]

Molecule	cell death (maximum concentration of 1 μM, all screening plates (normal colon and CRC organoids), used to estimate the background signal) [%]	growth of organoids, CRC versus normal colon organoids (MANOVA of HTS drug responses) (CRC organoids compared with normal colon organoids)
CC(C)C[C@@H](C=O)NC(=O)[C@H](CC(C)C)NC(=O)[C@H](CC(C)C)NC(=O)OCc1ccccc1 [MG-132] (Cbz-Leu-Leu-Leu-aldehyde)	100	
(+)-JQ1		suppressed the growth of organoids in a cancer-specific manner
